Test results from patent publication US9808473B2, “Preparation and use of 3-pyridyl substituted-6,6-difluoro bicyclic himbacine derivatives as par-1 receptor antagonists” (Merck Sharp & Dohme Corp., priority 2013, dated 2017).

What was measured:
PAR-1 receptor = target: T1, PAR-1 receptor (Homo sapiens, UniProt P25116); assay: PAR-1 FLIPR Assay; type: cell-based; details: HEK 293 cells, calcium signal after PAR-1 selective receptor-activating peptide at EC80
T1 construct: endogenous in cells; host or cells: HEK 293
T1 sequence (P25116 22-425): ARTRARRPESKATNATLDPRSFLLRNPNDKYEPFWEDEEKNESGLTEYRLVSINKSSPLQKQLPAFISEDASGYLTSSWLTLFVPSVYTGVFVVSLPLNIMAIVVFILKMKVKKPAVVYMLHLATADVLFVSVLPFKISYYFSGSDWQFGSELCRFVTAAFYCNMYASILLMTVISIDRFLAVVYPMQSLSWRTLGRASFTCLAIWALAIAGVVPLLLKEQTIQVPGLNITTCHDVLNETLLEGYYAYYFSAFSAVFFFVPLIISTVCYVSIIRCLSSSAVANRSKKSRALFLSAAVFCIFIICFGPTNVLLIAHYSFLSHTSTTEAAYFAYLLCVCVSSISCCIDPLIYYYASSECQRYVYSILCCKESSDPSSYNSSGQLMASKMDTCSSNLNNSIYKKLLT
Experimental: This assay measures the potency of the inventive compounds as PAR-1 receptor antagonists.
Frozen HEK 293 Cells were plated in 384-well PDL coated plates at 12000 cells/well in 50 uL of DMEM media containing 10% FBS, pen/strep/L-Glutamine and non-essential amino acids, incubated overnight at 37° C./5% CO2. Media was then removed from the cells, incubated with 33 uL of Calcium-5 dye in assay buffer (Hank's buffer containing 20 mM HEPES, 0.04% Chaps and 2.5 mM Probenecid) for 60 minutes at 37° C. 2 uL of varying concentrations of compound in 40% DMSO in assay buffer (final DMSO concentration is 2.3%) were then added to the cells and incubated at 25° C. for 30 minutes. The plates were added to the FLIPR Tetra®, the device added 5 uL of PAR-1 selective receptor-activating peptide (sequence Ala-parafluoroPhe-Arg-Cha-Cit-Try-Nh2, prepared in water) at a concentration equal to the effective concentration that achieved 80% activation of signaling on the day of the experiment. The range of peptide was from 1.5-3 μM. The final volume was 40 uL/well, with 2% DMSO. The FLIPR was read at an excitation wavelength of 480 nm and an emission wavelength of 535 nm, and performed 60 scans over a 1-2 min reading time. The data were analyzed by taking the peak signal over a portion of the range of the 60 scans and dividing this signal by the minimum signal for that same range. The data were expressed as percent inhibition of the maximum divided by the minimum signal achieved at 80% activation produced by the PAR1 activating peptide on the test day. The compounds of Examples 1-9 were tested in the assay described above and the data collected for these compounds is provided.

[1] = target: CYP3A4 (column heading prints CYP2D6; method and table sentence say CYP3A4) (Homo sapiens, UniProt P08684); assay: CYP MUX (3A4) RI; type: in vitro ADME; details: pH 7.4, probe testosterone (75 µM); human liver microsomes; method describes testosterone as substrate for 3A4
Source text: This assay measures inhibition of CYP3A4 by a compound. Cytochromes P450 (CYPs) constitute a superfamily of heme-containing enzymes that recognize and metabolize a large number structurally diverse xenobiotics in the human body. CYP3A4 constitutes the largest portion of CYP enzymes in the liver that accounts for the metabolism of almost 50% of all drugs. This assay is used to evaluate the potential of a compound for developing DDIs. (Clarke, S. E.; Jones B. C. Drug-Drug Interactions, New York: Marcel Dekker; 2002. pp. 53-88).
Compound dilutions and assay-ready plates were prepared on a TTP Labtech Mosquito® HTS. Assay conduction was fully automated on a customized Screening Platform from Caliper (now PerkinElmer) containing a Mitsubishi robotic plate handler, Liconic incubators, a Caliper Zephyr® liquid handling workstation equipped with temperature-controlled deck positions, a Biotek MultiFlo™ dispenser and an Agilent PlateLoc heat sealer. Assay plates were Corning Costar® 384 well PP plates. High throughput mass spectrometric readout was performed on a RapidFire® 300 system coupled to an AB Sciex API 4000™ triple quadrupole device. CYP isoform 3A4 was incubated in a separate reaction of 50 μL final volume. 25 μL of HLM (human liver microsomes, BD UltraPool™ 150, 0.25 mg/mL final concentration) and the respective substrate, testosterone (75 μM) for 3A4, in potassium phosphate buffer (100 mM, pH=7.4) were added to 250 nL of stamped compound solution (10 mM in DMSO). The reactions were started upon addition of 25 μL of a co-factor solution containing magnesium chloride (3.3 mM), glucose-6-phosphate (3.3 mM), glucose-6-phosphate dehydrogenase (1.4 units) and NADP (1 mM) in potassium phosphate buffer (100 mM, pH=7.4) and incubated on deck at 37° C. for 10 min. 8 μL of each reaction were transferred to the same readout plated filled with 48 μL of stop solution containing internal standards (concentration in final readout plate), 6-hydroxytestosterone-D7 (0.5 μM), 4′-hydroxydiclofenac-D4′-(0.2 μM), and dextrorphan-D3 (0.01 μM), in acetonitrile with 0.5% formic acid. After heat sealing, plates were stored at −20° C. for at least 30 min, centrifuged and subjected directly to RapidFire®/MS analysis.
(§1) Table 4 summarizes the selectivity of the inventive compounds in the CYP3A4 assay and the ability of the inventive compound to inhibit hERG.

hERG channel = target: T2, hERG channel (Homo sapiens, UniProt Q12809); assay: MK-499 Filter Binding Assay; details: [35S]MK-0499 radioligand competition, membranes of HEK293 cells expressing hERG, read-out: MK499 IC50; for IC50 at 90 min: human, pH 7.4, probe [35S]MK-0499 radioligand
T2 construct: expressed in transfected cells; host or cells: HEK293, stably transfected; membranes
Source text: MK-499 Filter Binding Assay
This assay is used to evaluate the potential of a compound to cause drug-induced log QT syndrome.
Drug cardiac arrhythmia is an important safety concern for pharmaceutical development and health regulatory authorities. Blockade of heterologously-expressed human ether-à-go-go gene (hERG) channel prolongs the duration of the cardiac action potential leading to a long QT interval that can lead to sudden death (De Ponti, F.; et at Drug Safety 2002, 25, pp. 263-286). It is important to have compounds devoid of hERG channel activity as measured by an in vitro assay. Affinity of compounds for the hERG channel was evaluated in radioligand competition experiments using HEK293 cells that were stably transfected with the hERG channel and radiolabeled ligand, MK-499 a potent antiarrhythmic. This assay correlates well with QT prolongation in vivo (Jamieson, C.; et al., J. Med. Chem. 2006, 49, pp. 5029-5046).
25 μL Target membranes (in assay buffer: 10 mM HEPES/NaOH, pH 7.4, 70 mM NaCl, 60 mM KCl, 2 mM MgCl2, 1 mM CaCl2) purified from a HEK293 cell line expressing the human Ether-à-go-go Related Gene (hERG) ion channel, 1 μL test compound in 10 mM DMSO and 25 μL (6,000 cpm/well; in assay buffer) [35S]MK-0499 radioligand (Merck/Perkin Elmer) are added to the assay plate (Axygen; 384 Deep well “Diamond Plate”, clear). After incubation of the binding reaction at room temperature (RT) for 90 min 50 μL of the assay were transferred to a MultiscreenHTS 384 FC filter plate (Millipore), which has been pre-wetted with 20 μL 0.01% PEI/0.01% Triton X-100 for at least 30 min at RT. Then, 30 μL it wash buffer (10 mM HEPES/NaOH, pH 7.4, 130 mM NaCl, 2 mM MgCl2, 1 mM CaCl2) equilibrated to RT were added to each well of the assay plate and subsequently transferred to the filter plate. The assay mixture was aspirated through the filter plate using a Biotek ELx405™ washer. The filter plate was washed twice with 100 μl cold wash buffer per wash and well and then dried in a drying oven for at least 75 min at 55° C. Afterwards, the bottom of each filter plate was heat sealed with a solid foil seal, then 10 μL of Microscint™ 0 (Perkin Elmer) were added to each well of the filter plate and finally, the top of each filter plate was sealed with a clear seal. The plates were stored for at least 20 min in a MicroBeta2 reader (Perkin Elmer) before they are counted (60 sec/well).
as §1

T2 sequence (Q12809 whole entry): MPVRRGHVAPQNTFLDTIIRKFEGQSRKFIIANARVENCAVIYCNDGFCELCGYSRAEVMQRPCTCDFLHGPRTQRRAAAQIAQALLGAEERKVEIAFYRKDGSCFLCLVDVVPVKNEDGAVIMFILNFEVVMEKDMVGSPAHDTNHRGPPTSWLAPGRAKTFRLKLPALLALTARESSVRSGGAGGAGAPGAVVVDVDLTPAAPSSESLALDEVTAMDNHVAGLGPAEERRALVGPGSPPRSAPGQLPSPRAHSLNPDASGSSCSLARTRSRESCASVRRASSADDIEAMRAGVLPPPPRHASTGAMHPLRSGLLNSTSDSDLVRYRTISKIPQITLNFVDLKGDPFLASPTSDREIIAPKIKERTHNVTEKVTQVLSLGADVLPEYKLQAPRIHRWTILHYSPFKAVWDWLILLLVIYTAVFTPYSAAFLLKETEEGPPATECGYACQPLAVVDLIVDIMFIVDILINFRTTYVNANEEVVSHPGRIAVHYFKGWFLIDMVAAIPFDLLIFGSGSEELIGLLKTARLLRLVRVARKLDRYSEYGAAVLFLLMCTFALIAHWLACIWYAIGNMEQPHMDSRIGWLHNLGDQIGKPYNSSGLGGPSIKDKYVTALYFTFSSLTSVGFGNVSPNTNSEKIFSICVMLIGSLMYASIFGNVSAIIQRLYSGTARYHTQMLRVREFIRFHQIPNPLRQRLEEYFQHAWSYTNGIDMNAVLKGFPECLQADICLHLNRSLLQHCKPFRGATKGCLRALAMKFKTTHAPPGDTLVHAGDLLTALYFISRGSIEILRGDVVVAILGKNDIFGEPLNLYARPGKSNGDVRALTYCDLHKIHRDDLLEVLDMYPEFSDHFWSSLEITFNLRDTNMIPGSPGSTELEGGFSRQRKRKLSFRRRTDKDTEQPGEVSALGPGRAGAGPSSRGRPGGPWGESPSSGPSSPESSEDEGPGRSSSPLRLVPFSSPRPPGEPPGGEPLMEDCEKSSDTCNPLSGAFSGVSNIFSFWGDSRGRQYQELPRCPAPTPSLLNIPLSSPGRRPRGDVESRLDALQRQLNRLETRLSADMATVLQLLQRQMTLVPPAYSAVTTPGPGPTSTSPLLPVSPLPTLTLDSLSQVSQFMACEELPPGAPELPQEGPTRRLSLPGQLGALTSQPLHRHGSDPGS
Sequence of CYP3A4 (column heading prints CYP2D6; method and table sentence say CYP3A4) (P08684 2-503): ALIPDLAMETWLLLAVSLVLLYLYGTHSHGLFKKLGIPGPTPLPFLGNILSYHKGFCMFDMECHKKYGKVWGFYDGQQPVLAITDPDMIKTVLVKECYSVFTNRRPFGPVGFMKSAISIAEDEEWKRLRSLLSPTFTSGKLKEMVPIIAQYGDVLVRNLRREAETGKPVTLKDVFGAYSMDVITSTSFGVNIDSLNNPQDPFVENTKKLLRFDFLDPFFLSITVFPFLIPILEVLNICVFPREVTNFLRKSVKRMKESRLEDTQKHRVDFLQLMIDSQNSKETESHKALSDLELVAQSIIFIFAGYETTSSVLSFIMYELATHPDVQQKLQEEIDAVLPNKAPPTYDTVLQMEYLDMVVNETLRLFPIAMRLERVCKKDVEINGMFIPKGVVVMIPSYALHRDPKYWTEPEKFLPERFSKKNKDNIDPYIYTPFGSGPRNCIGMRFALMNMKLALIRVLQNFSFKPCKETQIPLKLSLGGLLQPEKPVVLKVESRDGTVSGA

IC50 (PAR-1 receptor) [µM] | IC50 at 10 min [1] [µM] | Compound | IC50 at 90 min (hERG channel) [µM] | IC50 (hERG channel) [µM]
0.0924 | ≥ 50 | C[C@H]1OC(=O)[C@]2(O)CC(F)(F)[C@@H](C)[C@H](/C=C/c3ccc(-c4cccnc4N4CC(F)(F)C4)cn3)[C@H]12 [Example 9, (3R,3aR,4R,5S,7aS)-4-((E)-2-(2′-(3,3-difluoroazetidin-1-yl)-[3,3′-bipyridin]-6-yl)vinyl)-6,6-difluoro-7a-hydroxy-3,5-dimethylhexahydroisobenzofuran-1(3H)-one] | ≥ 60 | 
0.0054 | ≥ 50 | COc1ncccc1-c1ccc(/C=C/[C@@H]2[C@@H]3[C@@H](C)OC(=O)[C@]3(O)CC(F)(F)[C@H]2C)nc1 [Example 3, (3R,3aR,4R,5S,7aS)-6,6-difluoro-7a-hydroxy-4-((E)-2-(2′-methoxy-[3,3′-bipyridin]-6-yl)vinyl)-3,5-dimethylhexahydroisobenzofuran-1(3H)-one] | ≥ 60 | 
0.009 | 28.5 | C[C@H]1OC(=O)[C@]2(O)CC(F)(F)[C@@H](C)[C@H](/C=C/c3ccc(-c4cccnc4-c4ccccc4)cn3)[C@H]12 [Example 2, (3R,3aR,4R,5S,7aS)-6,6-difluoro-7a-hydroxy-3,5-dimethyl-4-((E)-2-(2′-phenyl-[3,3′-bipyridin]-6-yl)vinyl)hexahydroisobenzofuran-1(3H)-one] |  | 39.8
0.0104 | ≥ 50 | C[C@H]1OC(=O)[C@]2(O)CC(F)(F)[C@@H](C)[C@H](/C=C/c3ccc(-c4cccnc4C4CC4)cn3)[C@H]12 [Example 6, (3R,3aR,4R,5S,7aS)-4-((E)-2-(2′-cyclopropyl-[3,3′-bipyridin]-6-yl)vinyl)-6,6-difluoro-7a-hydroxy-3,5-dimethylhexahydroisobenzofuran-1(3H)-one] | ≥ 60 | 
0.0152 | ≥ 50 | Cc1ccc(-c2ncccc2-c2ccc(/C=C/[C@@H]3[C@@H]4[C@@H](C)OC(=O)[C@]4(O)CC(F)(F)[C@H]3C)nc2)s1 [Example 7, (3R,3aR,4R,5S,7aS)-6,6-difluoro-7a-hydroxy-3,5-dimethyl-4-((E)-2-(2′-(5-methylthiophen-2-yl)-[3,3′-bipyridin]-6-yl)vinyl)hexahydroisobenzofuran-1(3H)-one] |  | 20.8
0.0162 | ≥ 50 | C[C@H]1OC(=O)[C@]2(O)CC(F)(F)[C@@H](C)[C@H](/C=C/c3ccc(-c4cccnc4F)cn3)[C@H]12 [Example 5] | ≥ 60 | 
 | ≥ 50 | C[C@H]1OC(=O)[C@]2(O)CC(F)(F)[C@@H](C)[C@H](/C=C/c3ccc(-c4cccnc4-c4cncn4C)cn3)[C@H]12 [Example 8, (3R,3aR,4R,5S,7aS)-6,6-difIuoro-7a-hydroxy-3,5-dimethyl-4-((E)-2-(2′-(l-methyl-1H-imidazol-5-yl)-[3,3′-bipyridin]-6-yl)vinyl)hexahydroisobenzofuran-1(3H)-one] | ≥ 60 | 
0.0078 | ≥ 50 | C[C@H]1OC(=O)[C@]2(O)CC(F)(F)[C@@H](C)[C@H](/C=C/c3ccc(-c4cccnc4Cl)cn3)[C@H]12 [Example 4, (3R,3aR,4R,5S,7aS)-4-((E)-2-(2′-chloro-[3,3′-bipyridin]-6-yl)vinyl)-6,6-difluoro-7a-hydroxy-3,5-dimethylhexahydroisobenzofuran-1(3H)-one] |  | 18.7
0.0059 | ≥ 50 | C[C@H]1OC(=O)[C@]2(O)CC(F)(F)[C@@H](C)[C@H](/C=C/c3ccc(-c4cccnc4C#N)cn3)[C@H]12 [Example 1, 6′-((E)-2-((3R,3aR,4R,5S,7aS)-6,6-difluoro-7a-hydroxy-3,5-dimethyl-1-oxooctahydroisobenzofuran-4-yl)vinyl)-[3,3′-bipyridine]-2-carbonitrile] | ≥ 60 | 
